Results on 5 molecules are retold here after PMC12488667, “Orodispersible films containing chestnut shell phenolics for buccal delivery: a preclinical approach for oral mucositis prevention” (Frontiers in Medical Technology, 2025).

Series [1] relates to TR146 cells. In words: In vitro permeation, buccal model. The class given is in vitro ADME, human. The protocol:
The in vitro permeability of the bioactive compounds present in OFs (n = 9) was determined using a co-culture model composed of TR146 ([31]). The extract and the CS-loaded OFs were added to the apical side of the model as a stock solution. […] The Transepithelial Electrical Resistance (TEER) of the model was evaluated before, during, and at the end of the permeability assay using an EVOM Epithelial Volthometer equipped with a chopstick electrode (World Precision Instruments, Sarasota, FL, USA).
(§1) The identification and quantification of the phenolic compounds present in the extract and the OFs, as well as the compounds that permeated from the OFs through in vitro and ex vivo assays, were conducted using an LC-ESI-LTQ-Orbitrap-HRMS equipment with an Accela chromatograph (Thermo Scientific, Hemel Hempstead, UK), a photodiode array detector, a quaternary pump, and a temperature-controlled autosampler coupled to a high-resolution LTQ Orbitrap Velos mass spectrometer (Thermo Scientific, Hemel Hempstead, UK) with an ESI source in negative mode ([33], [34]). The system was controlled using the Xcalibur v3.0 software (ThermoFisher Scientific, Hemel Hempstead, UK). Elution was performed on an Acquity™ UPLC® BEH C18 Column (2.1 × 100 mm, i.d., 1.7 µm particle size, Waters Corporation, Wexford, Ireland) maintained at 30°C.
(§2) Gradient elution was performed with water (A) and acetonitrile (B), both with 0.1% formic acid, with a flow rate and injection volume of 450 µl/min and 5 µl, respectively. The solvent gradient (v/v) of B [t (min), %B] was set as follows: (0, 0), (2, 0), (4, 30), (8, 100), (10, 100), (11, 0), and (14, 0). The samples were analyzed in the full scan mode at a resolving power of 30,000 and m/z 600. Data-dependent MS/MS events were acquired at a resolution of 15,000. Most intense ions were detected via the FTMS mode-triggered data-dependent acquisition mode. Ions that were not sufficiently intense for a data-dependent scan were explored in MSn mode. Precursors were fragmented by collision-induced dissociation using a C-trap with a normalized collision energy (35 V) and an activation time of 10 ms. […] Compounds whose theoretical [M–H]^− values exceeded the MS¹ acquisition range (m/z 100–600) were annotated based on characteristic MSⁿ fragment ions detected within the scan window.

Series [2] is described as follows: Ex vivo permeation, Franz cells. Type of series: in vitro ADME, porcine. Here is the method: Porcine buccal mucosa was used to evaluate the buccal permeation of the phenolic compounds in the extract and the CS-loaded OFs (n = 9). The porcine buccal mucosa was purchased in a local butcher shop, not requiring ethical approval. A Franz cell assembly (9 mm clear jacketed Franz cell with a flat ground joint, 5 ml receptor volume, and permeation area of 0.785 cm^2; PermeGear, Inc., USA) was used. This experiment followed the methodology described by Rodrigues et al. ([32]). In the Franz apparatus, the porcine buccal mucosa was positioned with the cheek side facing the donor chamber, which contained 500 µl (1,000 μg/ml) of the CS extract or the CS-loaded OFs (two square films (2 × 2 cm) with […] of thickness were dissolved in 4 ml of artificial saliva; donor concentration was normalized to ensure equivalence between the extract solution and the film formulation). The receptor chamber was filled with 5 ml PBS, maintained at 37°C, and stirred continuously at 150 rpm. The volume was maintained through the experiments.
as §1, §2
Quantitative analysis was performed by using a validated chromatographic method ([38]).

Marks after values point to notes of the source that are not given here.

As for `O=C(O)c1cccc(O)c1` [3-Hydroxybenzoic acid], the “Quantification of permeated compounds” value in series [1] (CS extract) is recorded as 1.52 ± 0.02^a mg/ml; in series [1] (CS-loaded OFs) it was 0.36 ± 0.03^a mg/g film; in series [2] (CS extract), 1.18 ± 0.1^b mg/ml; in series [2] (CS-loaded OFs), 0.09 ± 0.02^a mg/g film. For the same molecule, the “Permeation (%)” value in series [1] (from CS extract, 15 min) was 13.57 ± 0.05^a %; in series [1] (from CS extract, 30 min) it was 13.06 ± 0.03^a %; in series [1] (from CS extract, 45 min), 14.09 ± 0.01^a %; in series [1] (from CS extract, 60 min) it was 17.29 ± 0.01^a %; in series [1] (from CS extract, 90 min), 16.17 ± 0.06^a %; in series [1] (from CS extract, 120 min), 29.12 ± 0.19^b %. Moreover, the “Permeation (%)” value was 16.86 ± 0.23^a % in series [1] (from CS extract, 180 min); 24.23 ± 0.45^b % in series [1] (from CS extract, 240 min); 5.91 ± 0.06^a % in series [2] (from CS extract, 15 min); 4.76 ± 0.02^a % in series [2] (from CS extract, 30 min); 45.86 ± 0.03^b % in series [2] (from CS-loaded OFs, 15 min); 105.28 ± 3.37^b % in series [2] (from CS-loaded OFs, 30 min).

Take `COc1cc(CC(=O)O)ccc1O` [Homovanillic acid]: the “Quantification of permeated compounds” value is 0.58 ± 0.03^a mg/ml in series [1] (CS extract), 0.41 ± 0.01^a mg/g film in series [1] (CS-loaded OFs), 2.03 ± 0.03^a mg/ml in series [2] (CS extract) and 1.67 ± 0.03^a mg/g film in series [2] (CS-loaded OFs). Besides, the “Permeation (%)” value is 93.51 ± 2.52^b % in series [1] (from CS extract, 15 min); 92.34 ± 1.55^b % in series [1] (from CS extract, 30 min); 92.13 ± 1.08^b % in series [1] (from CS extract, 45 min); 93.10 ± 0.94^b % in series [1] (from CS extract, 60 min); 94.47 ± 3.00^b % in series [1] (from CS extract, 90 min); 90.93 ± 2.74^b % in series [1] (from CS extract, 120 min). Moreover, the “Permeation (%)” value in series [1] (from CS extract, 180 min) is 91.20 ± 1.73^b %; in series [1] (from CS extract, 240 min), 87.20 ± 2.06^a %; in series [1] (from CS extract, 240 min, listed as homovanillic acid), 87.20%; in series [1] (from CS-loaded OFs, 15 min) it was 106.01 ± 1.46^a %; in series [1] (from CS-loaded OFs, 30 min), 104.89 ± 1.08^a %; in series [1] (from CS-loaded OFs, 45 min), 105.41 ± 0.99^a %. Further, the “Permeation (%)” value was 103.62 ± 2.72^a % in series [1] (from CS-loaded OFs, 60 min); 105.25 ± 2.83^a % in series [1] (from CS-loaded OFs, 90 min); 109.09 ± 1.97^a % in series [1] (from CS-loaded OFs, 120 min); 106.07 ± 2.67^a % in series [1] (from CS-loaded OFs, 180 min); 110.05 ± 3.61^a % in series [1] (from CS-loaded OFs, 240 min); 110.05% in series [1] (from CS-loaded OFs, 240 min, listed as homovanillic acid). The “Permeation (%)” value in series [2] (from CS extract, 15 min) was 99.88 ± 2.79^a %; in series [2] (from CS extract, 30 min), 100.53 ± 3.72^a %.

`O=C(O)[C@]1(O)C[C@@H](O)[C@@H](O)[C@H](O)C1` [Quinic acid]: the results for the “Quantification of permeated compounds” value in series [2] (CS extract) and in series [2] (CS-loaded OFs) were 1.02 ± 0.02^b mg/ml and 0.39 ± 0.01^a mg/g film, respectively. Further, the “Permeation (%)” value is 29.36 ± 1.68^a % in series [2] (from CS extract, 15 min); 28.33 ± 1.16^a % in series [2] (from CS extract, 30 min); 70.71 ± 1.52^b % in series [2] (from CS-loaded OFs, 15 min); 74.31 ± 1.78^b % in series [2] (from CS-loaded OFs, 30 min).

For the molecule `O=C(O)CCCCCCCCCC(=O)O` [Undecanedioic acid], the “Quantification of permeated compounds” value in series [2] (CS extract) is listed as 23.93 ± 1.12^a mg/ml; in series [2] (CS-loaded OFs) it was 23.67 ± 5.00^a mg/g film. The “Permeation (%)” value is listed as 85.64 ± 4.12^a % in series [2] (from CS extract, 15 min) and 86.86 ± 3.52^a % in series [2] (from CS extract, 30 min).

For `O=c1[nH]c(=O)c2[nH]cnc2[nH]1` [Xanthine], the “Permeation (%)” value in series [2] (pig, 15 min, 1000 μg/ml) is listed as 6.94 ± 0.02^a %; in series [2] (pig, 30 min, 1000 μg/ml), 6.48 ± 0.02^a %.
